Source: ChEMBL document CHEMBL1138996, “Biological evaluation of isothiazoloquinolones containing aromatic heterocycles at the 7-position: In vitro activity of a series of potent antibacterial agents that are effective against methicillin-resistant Staphylococcus aureus” (Bioorg Med Chem Lett, 2006)
≈ marks a conversion by molar mass, not a printed value.

Tests used:
[1] = system: Escherichia coli; assay: Antibacterial activity against Escherichia coli ATCC 25922; format: functional
[2] = system: Staphylococcus aureus; assay: Antibacterial activity against Staphylococcus aureus ATCC 29213; format: functional
[3] = system: Staphylococcus aureus; assay: Antibacterial activity against methicillin-resistant Staphylococcus aureus ATCC 700699; format: functional
[4] = biological target: DNA topoisomerase 4 subunit A (Staphylococcus aureus, UniProt P0C1U9); assay: Inhibitory activity against Staphylococcus aureus ATCC 29213 wild type Topo 4
Chain of DNA topoisomerase 4 subunit A (P0C1U9 whole entry): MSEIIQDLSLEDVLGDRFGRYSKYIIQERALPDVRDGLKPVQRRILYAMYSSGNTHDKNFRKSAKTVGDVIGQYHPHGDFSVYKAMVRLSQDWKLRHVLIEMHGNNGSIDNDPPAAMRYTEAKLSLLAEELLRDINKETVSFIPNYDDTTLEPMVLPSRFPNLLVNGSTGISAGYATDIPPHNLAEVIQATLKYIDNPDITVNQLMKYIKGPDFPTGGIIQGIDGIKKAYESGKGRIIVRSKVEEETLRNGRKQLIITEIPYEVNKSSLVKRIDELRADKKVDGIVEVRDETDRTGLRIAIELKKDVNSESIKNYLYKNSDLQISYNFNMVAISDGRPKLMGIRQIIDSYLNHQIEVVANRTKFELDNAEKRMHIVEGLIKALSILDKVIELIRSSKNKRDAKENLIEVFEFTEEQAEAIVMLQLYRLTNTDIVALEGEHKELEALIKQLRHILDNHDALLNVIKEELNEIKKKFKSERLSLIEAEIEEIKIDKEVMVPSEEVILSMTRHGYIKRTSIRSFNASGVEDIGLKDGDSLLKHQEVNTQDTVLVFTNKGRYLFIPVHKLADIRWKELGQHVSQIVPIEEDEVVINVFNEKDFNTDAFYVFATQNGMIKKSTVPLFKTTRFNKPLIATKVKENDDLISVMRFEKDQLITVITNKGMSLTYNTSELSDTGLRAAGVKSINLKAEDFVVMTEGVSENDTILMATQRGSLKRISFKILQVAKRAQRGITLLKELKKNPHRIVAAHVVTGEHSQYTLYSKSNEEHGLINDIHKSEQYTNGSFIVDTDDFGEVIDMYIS

[5] = system: HEp-2; assay: Cytotoxicity against Hep2 cell line; format: functional; conditions: Homo sapiens

O=c1[nH]sc2c1c(=O)c1cc(F)c(-c3cccc4cccnc34)cc1n2C1CC1
MIC [1]: 0.75 µg/mL (≈ 1.86 µM) | MIC [2]: 0.13 µg/mL (≈ 0.322 µM) | MIC [3]: 16 µg/mL (≈ 39.7 µM) | IC50 [4]: > 40 µM | CC50 [5]: 79 µM

O=c1[nH]sc2c1c(=O)c1cc(F)c(-c3cnc4ccccc4c3)cc1n2C1CC1
MIC [1]: 0.13 µg/mL (≈ 0.322 µM) | MIC [2]: 0.011 µg/mL (≈ 0.0273 µM) | MIC [3]: 8 µg/mL (≈ 19.8 µM) | IC50 [4]: 50 µM | CC50 [5]: > 100 µM

Cn1ccc2cc(-c3cc4c(cc3F)c(=O)c3c(=O)[nH]sc3n4C3CC3)ccc21
MIC [1]: 1 µg/mL (≈ 2.47 µM) | MIC [2]: 0.065 µg/mL (≈ 0.16 µM) | MIC [3]: 8 µg/mL (≈ 19.7 µM) | IC50 [4]: 3.6 µM | CC50 [5]: > 100 µM

Cc1ccc(-c2cc3c(cc2F)c(=O)c2c(=O)[nH]sc2n3C2CC2)c(C)n1
MIC [1]: 0.5 µg/mL (≈ 1.31 µM) | MIC [2]: 0.13 µg/mL (≈ 0.341 µM) | MIC [3]: > 64 µg/mL | IC50 [4]: 8 µM | CC50 [5]: > 100 µM

O=c1[nH]sc2c1c(=O)c1cc(F)c(-c3cc4ccccc4[nH]3)cc1n2C1CC1
MIC [1]: 1 µg/mL (≈ 2.55 µM) | MIC [2]: 0.06 µg/mL (≈ 0.153 µM) | MIC [3]: 4 µg/mL (≈ 10.2 µM) | IC50 [4]: 3.3 µM | CC50 [5]: 9 µM

O=c1[nH]sc2c1c(=O)c1cc(F)c(-c3ccc(-n4cccc4)nc3)cc1n2C1CC1
MIC [1]: 1 µg/mL (≈ 2.39 µM) | MIC [2]: 0.029 µg/mL (≈ 0.0693 µM) | MIC [3]: 4 µg/mL (≈ 9.56 µM) | IC50 [4]: 18 µM | CC50 [5]: > 100 µM

O=c1[nH]sc2c1c(=O)c1cc(F)c(-c3cccnc3F)cc1n2C1CC1
MIC [1]: 0.015 µg/mL (≈ 0.0404 µM) | MIC [2]: 0.015 µg/mL (≈ 0.0404 µM) | IC50 [4]: 2.4 µM | CC50 [5]: > 100 µM

O=c1[nH]sc2c1c(=O)c1cc(F)c(-c3ccnc(CO)c3)cc1n2C1CC1
MIC [1]: 0.14 µg/mL (≈ 0.365 µM) | MIC [2]: 0.034 µg/mL (≈ 0.0887 µM) | MIC [3]: 32 µg/mL (≈ 83.5 µM) | IC50 [4]: 4.8 µM | CC50 [5]: > 100 µM

NCc1ccc(-c2cc3c(cc2F)c(=O)c2c(=O)[nH]sc2n3C2CC2)cn1
MIC [1]: 0.059 µg/mL (≈ 0.154 µM) | MIC [2]: 0.13 µg/mL (≈ 0.34 µM) | MIC [3]: 32 µg/mL (≈ 83.7 µM) | IC50 [4]: 0.7 µM | CC50 [5]: > 100 µM

COc1cncc(-c2cc3c(cc2F)c(=O)c2c(=O)[nH]sc2n3C2CC2)c1
MIC [1]: 0.061 µg/mL (≈ 0.159 µM) | MIC [2]: 0.03 µg/mL (≈ 0.0782 µM) | MIC [3]: 4 µg/mL (≈ 10.4 µM) | IC50 [4]: 21 µM | CC50 [5]: 34 µM
